Measured values reported in US6355799B1, “Substituted benzene compounds, process for their preparation, and herbicidal and defoliant compositions containing them” (ISK Americas Incorporated, priority 1997, dated 2002).

Columns and labels:
Type in all cases: in vivo
[1] = system: lambsquarters (Chenopodium album, CHEAL); test: Post-emerge test, greenhouse herbicide activity screening; conditions: post-emerge, 14 days after application, rating scale 0-100
How it was run: (§1)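 Applied at 15–1000 g ai/ha from acetone in 187 l/ha spray volume. Post-emergence applications included 0.25% v/v non-ionic surfactant and reached plants sown 8–21 days before. Pre-emergence applications were incorporated by surface watering. Efficacy or crop damage was rated on a 0–100 scale after 14 days.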

[2] = system: velvetleaf (Abutilon theophrasti, ABUTH); test: as above; conditions: post-emerge, 14 days after application, rating scale 0-100
How it was run: as §1

[3] = system: large crabgrass (Digitaria sanguinalis, DIGSA); test: as above; conditions: post-emerge, 14 days after application, rating scale 0-100
How it was run: as §1

[4] = system: redroot pigweed (Amaranthus retroflexus, AMARE); test: as above; conditions: post-emerge, 14 days after application, rating scale 0-100
How it was run: as §1

[5] = system: sicklepod (Cassia obtusifolia, CASOB); test: as above; conditions: post-emerge, 14 days after application, rating scale 0-100
How it was run: as §1

[6] = system: ivyleaf morningglory (Ipomoea hederacea, IPOHE); test: as above; conditions: post-emerge, 14 days after application, rating scale 0-100
How it was run: as §1

[7] = system: green foxtail (Setaria viridis, SETVI); test: as above; conditions: post-emerge, 14 days after application, rating scale 0-100
How it was run: as §1

[8] = system: barnyardgrass (Echinochloa crus-galli, ECHCG); test: as above; conditions: post-emerge, 14 days after application, rating scale 0-100
How it was run: as §1

[9] = system: common ragweed (Ambrosia artemisizfolia L., AMBEL); test: as above; conditions: post-emerge, 14 days after application, rating scale 0-100
How it was run: as §1

[10] = system: johnsongrass (Sorghum halepense, SORHA); test: as above; conditions: post-emerge, 14 days after application, rating scale 0-100
How it was run: as §1

[11] = system: lambsquarters (Chenopodium album, CHEAL); test: Pre-emerge test, greenhouse herbicide activity screening; conditions: rated 14 days after application, 0 = no damage, 100 = complete death
How it was run: (§2)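 Compounds in acetone were track-sprayed at 15-1000 g ai/ha (187 l/ha) on sandy loam pots: pre-emerge one day after seeding, post-emerge at 2-3 leaf stage with 0.25% v/v non-ionic surfactant. Phytotoxicity was rated 14 days later on a 0 (no damage) to 100 (complete death) scale.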

[12] = system: velvetleaf (Abutilon theophrasti, ABUTH); test: as above; conditions: rated 14 days after application, 0 = no damage, 100 = complete death
How it was run: as §2

[13] = system: large crabgrass (Digitaria sanguinalis, DIGSA); test: as above; conditions: rated 14 days after application, 0 = no damage, 100 = complete death
How it was run: as §2

[14] = system: sicklepod (Cassia obtusifolia, CASOB); test: as above; conditions: rated 14 days after application, 0 = no damage, 100 = complete death
How it was run: as §2

[15] = system: ivyleaf morningglory (Ipomoea hederacea, IPOHE); test: as above; conditions: rated 14 days after application, 0 = no damage, 100 = complete death
How it was run: as §2

[16] = system: green foxtail (Setaria viridis, SETVI); test: as above; conditions: rated 14 days after application, 0 = no damage, 100 = complete death
How it was run: as §2

[17] = system: barnyardgrass (Echinochloa crus-galli, ECHCG); test: as above; conditions: rated 14 days after application, 0 = no damage, 100 = complete death
How it was run: as §2

[18] = system: johnsongrass (Sorghum halepense, SORHA); test: as above; conditions: rated 14 days after application, 0 = no damage, 100 = complete death
How it was run: as §2

[19] = system: upland rice (Oryza sp., var. Tebonnet, RICE); test: Pre-emerge test, crop safety; conditions: rated 14 days after application, 0 = no damage, 100 = complete death
How it was run: (§3)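 Visual ratings on a 0-100 scale (0 no damage, 100 all plants dead) were taken at 14 days after treatment. Rates of 15-1000 g ai/ha in acetone, 187 l/ha, were sprayed onto soil one day after planting (pre-emerge) or onto 2-3 leaf plants with 0.25% v/v surfactant (post-emerge).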

[20] = system: field corn (Zea mays L., var. Dekalb 535, CORN); test: Pre-emerge test, crop safety; conditions: rated 14 days after application, 0 = no damage, 100 = complete death
How it was run: as §3

[21] = system: redroot pigweed (Amaranthus retroflexus, AMARE); test: Pre-emerge test, greenhouse herbicide activity screening; conditions: rated 14 days after application, 0 = no damage, 100 = complete death
How it was run: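 Plants grown in 10 cm pots of sandy loam mix received acetone-dissolved compounds through a moving flat-fan nozzle. Doses ranged from 15 to 1000 g ai/ha. Pre-emerge pots were seeded one day earlier, post-emerge pots 8–21 days earlier. Fourteen days on, each pot was graded 0–100 for damage.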

[22] = system: upland rice (Oryza sp., var. Tebonnet, RICE); test: Post-emerge test, crop safety; conditions: post-emerge, 14 days after application, rating scale 0-100
How it was run: as §2

[23] = system: field corn (Zea mays L., var. Dekalb 535, CORN); test: Post-emerge test, crop safety; conditions: post-emerge, 14 days after application, rating scale 0-100
How it was run: as §2

COc1c(Cl)cc(F)c(-n2c(=O)cc(C(F)(F)F)n(C)c2=O)c1NC(=O)c1ccc(C(F)(F)F)cc1 [2-33]
phytotoxicity rating CHEAL ([1]; 63 g ai/ha): 80
phytotoxicity rating CHEAL ([1]; 250 g ai/ha): 95
phytotoxicity rating ABUTH ([2]; 63 g ai/ha): 100
phytotoxicity rating ABUTH ([2]; 250 g ai/ha): 100
phytotoxicity rating DIGSA ([3]; 63 g ai/ha): 0
phytotoxicity rating DIGSA ([3]; 250 g ai/ha): 40
phytotoxicity rating AMARE ([4]; 63 g ai/ha): 90
phytotoxicity rating AMARE ([4]; 250 g ai/ha): 95
phytotoxicity rating CASOB ([5]; 63 g ai/ha): 70
phytotoxicity rating CASOB ([5]; 250 g ai/ha): 80
phytotoxicity rating IPOHE ([6]; 63 g ai/ha): 100
phytotoxicity rating IPOHE ([6]; 250 g ai/ha): 100
phytotoxicity rating SETVI ([7]; 63 g ai/ha): 50
phytotoxicity rating SETVI ([7]; 250 g ai/ha): 40
phytotoxicity rating ECHCG ([8]; 63 g ai/ha): 10
phytotoxicity rating ECHCG ([8]; 250 g ai/ha): 60
phytotoxicity rating AMBEL ([9]; 63 g ai/ha): 70
phytotoxicity rating AMBEL ([9]; 250 g ai/ha): 95
phytotoxicity rating SORHA ([10]; 63 g ai/ha): 0
phytotoxicity rating SORHA ([10]; 250 g ai/ha): 20
Pre-emerge Herbicidal Activity, phytotoxicity rating (0-100), CHEAL ([11]; 63 g ai/ha): 100
Pre-emerge Herbicidal Activity, phytotoxicity rating (0-100), CHEAL ([11]; 250 g ai/ha): 100
Pre-emerge Herbicidal Activity, phytotoxicity rating (0-100), ABUTH ([12]; 63 g ai/ha): 100
Pre-emerge Herbicidal Activity, phytotoxicity rating (0-100), ABUTH ([12]; 250 g ai/ha): 100
Pre-emerge Herbicidal Activity, phytotoxicity rating (0-100), DIGSA ([13]; 63 g ai/ha): 100
Pre-emerge Herbicidal Activity, phytotoxicity rating (0-100), DIGSA ([13]; 250 g ai/ha): 100
Pre-emerge Herbicidal Activity, phytotoxicity rating (0-100), CASOB ([14]; 63 g ai/ha): 100
Pre-emerge Herbicidal Activity, phytotoxicity rating (0-100), CASOB ([14]; 250 g ai/ha): 100
Pre-emerge Herbicidal Activity, phytotoxicity rating (0-100), IPOHE ([15]; 63 g ai/ha): 100
Pre-emerge Herbicidal Activity, phytotoxicity rating (0-100), IPOHE ([15]; 250 g ai/ha): 100
Pre-emerge Herbicidal Activity, phytotoxicity rating (0-100), SETVI ([16]; 63 g ai/ha): 100
Pre-emerge Herbicidal Activity, phytotoxicity rating (0-100), SETVI ([16]; 250 g ai/ha): 100
Pre-emerge Herbicidal Activity, phytotoxicity rating (0-100), ECHCG ([17]; 63 g ai/ha): 30
Pre-emerge Herbicidal Activity, phytotoxicity rating (0-100), ECHCG ([17]; 250 g ai/ha): 95
Pre-emerge Herbicidal Activity, phytotoxicity rating (0-100), SORHA ([18]; 63 g ai/ha): 60
Pre-emerge Herbicidal Activity, phytotoxicity rating (0-100), SORHA ([18]; 250 g ai/ha): 90
Pre-emerge phytotoxicity rating (0-100), crop damage, RICE ([19]; 63 g ai/ha): 70
Pre-emerge phytotoxicity rating (0-100), crop damage, RICE ([19]; 250 g ai/ha): 80
Pre-emerge phytotoxicity rating (0-100), crop damage, CORN ([20]; 63 g ai/ha): 70
Pre-emerge phytotoxicity rating (0-100), crop damage, CORN ([20]; 250 g ai/ha): 90
Pre-emerge Herbicidal Activity, phytotoxicity rating (0-100), AMARE ([21]; 63 g ai/ha): 100
Pre-emerge Herbicidal Activity, phytotoxicity rating (0-100), AMARE ([21]; 250 g ai/ha): 100
phytotoxicity rating RICE ([22]; 63 g ai/ha): 20
phytotoxicity rating RICE ([22]; 250 g ai/ha): 60
phytotoxicity rating CORN ([23]; 63 g ai/ha): 10
phytotoxicity rating CORN ([23]; 250 g ai/ha): 40
